Measured values as given in publication PMC8070745, “FEN1 Blockade for Platinum Chemo-Sensitization and Synthetic Lethality in Epithelial Ovarian Cancers” (Cancers, 2021).

Legend:
Type in all cases: cell-based, human
PEO4 spheroids = test: 3D spheroid assay, PEO4; settings: FEN1i/cisplatin combination vs cisplatin or FEN1i monotherapy
Protocol: (§1) with ice cold PBS and fixed in 70% ethanol for 1h at -20°C. After removal of the fixative solution by centrifugation, cells were stained with 2 µg/ml of phospho-Histone (γH2AX) Ser139 (16202A, Millipore, UK) to detect DSBs.
(§2) Cell cycle progression: Cells were treated with 20 µg/ml RNase A (12091021, Invitrogen) and then 10 µg/ml Propidium Iodide (P4170, Sigma Aldrich) was added to determine the cell cycle distribution. The samples were analysed on a Beckman-Coulter FC500 flow cytometer using a 488nm laser for excitation and emission data for PI collected using a 620nm bandpass filter (FL3) and a 525nm bandpass filter (FL1) for FITC-anti-phospho-Histone H2A.X.
Apoptosis detection: Annexin V detection kit (556547, BD Biosciences) was used to quantify apoptotic cells. Briefly, cells were trypsinized, washed with PBS and the cellular pellet was re-suspended in Anexin Binding Buffer (1×). […] All the samples were analysed on a Beckman-Coulter FC500 flow cytometer. The percentage of apoptotic cells was determined (late apoptotic = FITC-Annexin V positive, PI positive early apoptotic = FITC-Annexin V positive, PI negative; live cells = FITC-Annexin V negative, PI negative) and compared for untreated and treated samples. […]
To quantify cell viability, LIVE/DEAD Viability/Cytotoxicity Kit (L3224, Thermo Fisher Scientific) was used. […] At least 10 spheroids were measured. […]

PEO4 cells = test: Annexin V apoptosis detection, PEO4; settings: FEN1i plus cisplatin
Protocol: The samples were analysed on a Beckman-Coulter FC500 flow cytometer using a 488nm laser for excitation and emission data for PI collected using a 620nm bandpass filter (FL3) and a 525nm bandpass filter (FL1) for FITC-anti-phospho-Histone H2A.X.
(§3) Apoptosis detection: Annexin V detection kit (556547, BD Biosciences) was used to quantify apoptotic cells. Briefly, cells were trypsinized, washed with PBS and the cellular pellet was re-suspended in Anexin Binding Buffer (1×). Following, FITC Anexin V and Propidium Iodide were added to the cells. After incubation, Anexin binding Buffer (1×) was added to each tube. All the samples were analysed on a Beckman-Coulter FC500 flow cytometer. The percentage of apoptotic cells was determined (late apoptotic = FITC-Annexin V positive, PI positive early apoptotic = FITC-Annexin V positive, PI negative; live cells = FITC-Annexin V negative, PI negative) and compared for untreated and treated samples. Graphical representation and statistical analysis was performed in GraphPad Prism 7 (GraphPad, La Jolla, USA).
3D Spheroid assays: A2780_control and A2780 FEN1_ KO as well as A2780cis_control and A2780cis FEN1_ KO cells were seeded at 4500 cells/cm2 density in ultra-low attachment 6-well plates (174932, Thermo Fisher Scientific) and cultured in 3D Tumorsphere Medium (C28070, PromoCell, UK) at 37°C in a 5% CO2 atmosphere. […]

POLβ KO A2780cis cells [1] = test: Annexin V apoptosis detection, POLβ KO A2780cis; settings: FEN1i-treated
Protocol: as §3
(§4) 3D Spheroid assays: A2780_control and A2780 FEN1_ KO as well as A2780cis_control and A2780cis FEN1_ KO cells were seeded at 4500 cells/cm2 density in ultra-low attachment 6-well plates (174932, Thermo Fisher Scientific) and cultured in 3D Tumorsphere Medium (C28070, PromoCell, UK) at 37°C in a 5% CO2 atmosphere. Cells were keep in culture for 7-10 days, toping up with fresh medium every two days until spheroids structures were formed.

POLβ KO A2780cis cells [2] = test: Cell cycle progression, POLβ KO A2780cis; settings: FEN1i-treated
Protocol: as §1
as §2, with “H2A.X. […]” for “H2A.X.”
Graphical representation and statistical analysis was performed in GraphPad Prism 7 (GraphPad, La Jolla, USA).
as §4

Q: How did the “cell death in 3D spheroids” value (PEO4 spheroids) turn out when `Cc1csc2c1c(=O)n(O)c(=O)n2-c1ccccc1` [PTPD, 3-hydroxy-5-methyl-1-phenylthieno [2,3 d]pyrimidine-2,4(1H,3H)-dione] was run?
A: Its value is “increased cell death”.

Q: And the apoptosis (PEO4 cells)?
A: Its apoptosis is “accumulation of apoptotic cells”.

Q: What about the apoptosis (POLβ KO A2780cis cells [1]) of the same molecule?
A: The apoptosis was “apoptosis”.

Q: What about the cell cycle effect (POLβ KO A2780cis cells [2]) of the same molecule?
A: The cell cycle effect was “G2/M cell cycle arrest”.
